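Test compounds were applied to cells in 96-well plates for 48 hours at 5 doses. Abbreviation: GI50, concentration required for 50% inhibition of growth.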 Calls of active or inactive are those of the source. No stated cut-off is given here; in the data, active = GI50 up to about 1.1 µM and inactive = higher.
Key:
Assay in all cases: inhibition of tumour cell growth, NCI panel, 48 h
786-0 = test system: 786-0
HCT-116 = test system: HCT-116
HL-60 = test system: HL-60
Hs-578T = test system: Hs-578T
KM12 = test system: KM12
LOX IMVI = test system: LOX IMVI
MDA-MB-231 = test system: MDA-MB-231
NCI-H460 = test system: NCI-H460
NCI-H522 = test system: NCI-H522
NCI/ADR-RES = test system: NCI/ADR-RES
OVCAR-4 = test system: OVCAR-4
OVCAR-8 = test system: OVCAR-8
PC-3 = test system: PC-3
RXF 393 = test system: RXF 393
SF-268 = test system: SF-268
SK-MEL-5 = test system: SK-MEL-5
SK-OV-3 = test system: SK-OV-3
SNB-19 = test system: SNB-19
U-251 = test system: U-251
UACC-257 = test system: UACC-257

SMILES | GI50 (786-0) | GI50 (HCT-116) | GI50 (HL-60) | GI50 (Hs-578T) | GI50 (KM12) | GI50 (LOX IMVI) | GI50 (MDA-MB-231) | GI50 (NCI-H460) | GI50 (NCI-H522) | GI50 (NCI/ADR-RES) | GI50 (OVCAR-4) | GI50 (OVCAR-8) | GI50 (PC-3) | GI50 (RXF 393) | GI50 (SF-268) | GI50 (SK-MEL-5) | GI50 (SK-OV-3) | GI50 (SNB-19) | GI50 (U-251) | GI50 (UACC-257)
CC(C)CNC(=O)O | > 100 µM (inactive) | > 100 µM (inactive) | > 100 µM (inactive) | > 100 µM (inactive) | > 100 µM (inactive) | > 100 µM (inactive) | > 100 µM (inactive) | > 100 µM (inactive) | > 100 µM (inactive) | > 100 µM (inactive) | > 100 µM (inactive) | > 100 µM (inactive) | > 100 µM (inactive) | > 100 µM (inactive) | > 100 µM (inactive) | > 100 µM (inactive) | > 100 µM (inactive) | > 100 µM (inactive) | > 100 µM (inactive) | > 100 µM (inactive)
Oc1ccc2ccccc2c1/C=C/c1ccc2c(Br)cc(Br)c(O)c2n1 | 5.2 µM (inactive) | 2.96 µM (inactive) | 2.87 µM (inactive) | 12.6 µM (inactive) | 5.4 µM (inactive) | 2.6 µM (inactive) | 5.58 µM (inactive) | 1.75 µM (inactive) | 3.56 µM (inactive) | 2.41 µM (inactive) | 9.82 µM (inactive) | 3.57 µM (inactive) | 4.57 µM (inactive) | 8.61 µM (inactive) | 5.87 µM (inactive) | 3.36 µM (inactive) | 9.4 µM (inactive) | 6.73 µM (inactive) | 4.54 µM (inactive) | 8.49 µM (inactive)
COC(=O)C1=NN2c3ccccc3CN([C@@H](C)c3ccccc3)C(=O)[C@@H]2C1 | 41.2 µM (inactive) | 32.4 µM (inactive) | 23.9 µM (inactive) | 41.1 µM (inactive) | 21.2 µM (inactive) | 25.5 µM (inactive) | 57 µM (inactive) | 58.3 µM (inactive) | 21.7 µM (inactive) | 21 µM (inactive) | 13.3 µM (inactive) | 34.6 µM (inactive) | 31.4 µM (inactive) | 46.6 µM (inactive) | 28.7 µM (inactive) | 18.7 µM (inactive) | > 100 µM (inactive) | 39.6 µM (inactive) | 40.7 µM (inactive) | 30.5 µM (inactive)
CC[C@H](C)C1=C(O)[N@+]2([O-])Oc3ccc(-c4c(O)c(O)c(-c5ccc(OC(C)=O)cc5)c(OC(C)=O)c4OC(C)=O)cc3O[C@]2([C@@H](C)CC)C(=O)N1O | 21.4 µM (inactive) | 9.86 µM (inactive) | 15.2 µM (inactive) | 39.2 µM (inactive) | 29.9 µM (inactive) | 12.9 µM (inactive) | 21.9 µM (inactive) | 21.5 µM (inactive) | 8.43 µM (inactive) | 12.9 µM (inactive) | 8.79 µM (inactive) | 24.5 µM (inactive) | 34 µM (inactive) | > 50 µM (inactive) | 33.3 µM (inactive) | 20 µM (inactive) | 15.4 µM (inactive) | 45.3 µM (inactive) | 18.6 µM (inactive) | > 50 µM (inactive)
CC(=N\N)/C(C)=N/N=C(C)/C(C)=N/N=C(C)/C(C)=N/N | > 100 µM (inactive) | > 100 µM (inactive) | 28.5 µM (inactive) | > 100 µM (inactive) | > 100 µM (inactive) | > 100 µM (inactive) | > 100 µM (inactive) | > 100 µM (inactive) | > 100 µM (inactive) | > 100 µM (inactive) | > 100 µM (inactive) | > 100 µM (inactive) | > 100 µM (inactive) | > 100 µM (inactive) | > 100 µM (inactive) | > 100 µM (inactive) | > 100 µM (inactive) | > 100 µM (inactive) | > 100 µM (inactive) | > 100 µM (inactive)
CC(=O)NC1C(OCc2ccccc2)OC(CO)C(O)C1OC(C)C(=O)NC(C)C(=O)NC(CCC(=O)NCCCNc1c2ccccc2nc2cccc([N+](=O)[O-])c12)C(N)=O (stereo not given) | 2.77 µM (inactive) | 0.263 µM (active) | 1.26 µM (inactive) | 6.78 µM (inactive) | 2.57 µM (inactive) | 3.65 µM (inactive) | 1.36 µM (inactive) | 0.258 µM (active) | 1.48 µM (inactive) | 4.09 µM (inactive) | 5.14 µM (inactive) | 1.05 µM (active) | 0.618 µM (active) | 1.31 µM (inactive) | 1.38 µM (inactive) | 1.01 µM (active) | 7.26 µM (inactive) | 3.67 µM (inactive) | 1.6 µM (inactive) | 2 µM (inactive)
CC(C)=CCC[C@@H](C)C1=C(Nc2ccccc2Cl)C(=O)C(C)=C(O)C1=O | 1.81 µM (inactive) | 3.91 µM (inactive) | 0.612 µM (active) | 3.42 µM (inactive) | 3.08 µM (inactive) | 3.26 µM (inactive) | 4.61 µM (inactive) | 2.43 µM (inactive) | 2.57 µM (inactive) | 1.1 µM (active) | 5.53 µM (inactive) | 2.81 µM (inactive) | 4.85 µM (inactive) | 11.7 µM (inactive) | 3.85 µM (inactive) | 1.95 µM (inactive) | 5.14 µM (inactive) | 4.49 µM (inactive) | 4.27 µM (inactive) | 6.46 µM (inactive)
Cc1c(N)nc(C(CC(N)=O)NCC(N)C(N)=O)nc1C(=O)NC(C(=O)NC(C)C(O)C(C)C(=O)NC(C(=O)NCCc1nc(-c2nc(C(=O)NCCCNC(C)c3ccccc3)cs2)cs1)C(C)O)C(OC1OC(CO)C(O)C(O)C1OC1OC(CO)C(O)C(OC(N)=O)C1O)c1c[nH]cn1 (stereo not given) | 0.419 µM (active) | 0.328 µM (active) | 7.59 µM (inactive) | 0.0482 µM (active) | 16.6 µM (inactive) | 0.108 µM (active) | > 50 µM (inactive) | 0.0482 µM (active) | 2.65 µM (inactive) | 1.57 µM (inactive) | 7.4 µM (inactive) | 5.11 µM (inactive) | > 50 µM (inactive) | 0.156 µM (active) | 2.9 µM (inactive) | 1.05 µM (active) | 10.2 µM (inactive) | 8.39 µM (inactive) | 1.26 µM (inactive) | 22.3 µM (inactive)
CSc1nc(=S)[nH]c2[nH]nc(C)c12 | > 100 µM (inactive) | > 100 µM (inactive) | > 100 µM (inactive) | > 100 µM (inactive) | > 100 µM (inactive) | > 100 µM (inactive) | > 100 µM (inactive) | > 100 µM (inactive) | 55 µM (inactive) | > 100 µM (inactive) | > 100 µM (inactive) | > 100 µM (inactive) | > 100 µM (inactive) | > 100 µM (inactive) | > 100 µM (inactive) | > 100 µM (inactive) | > 100 µM (inactive) | > 100 µM (inactive) | > 100 µM (inactive) | > 100 µM (inactive)
O=C(c1ccccc1)c1ccc2c(c1)NC(=O)c1ccccc1SSc1ccccc1C(=O)N2 | > 100 µM (inactive) | > 100 µM (inactive) | > 100 µM (inactive) | > 100 µM (inactive) | > 100 µM (inactive) | > 100 µM (inactive) | > 100 µM (inactive) | > 100 µM (inactive) | > 100 µM (inactive) | > 100 µM (inactive) | > 100 µM (inactive) | > 100 µM (inactive) | > 100 µM (inactive) | > 100 µM (inactive) | > 100 µM (inactive) | > 100 µM (inactive) | > 100 µM (inactive) | > 100 µM (inactive) | > 100 µM (inactive) | > 100 µM (inactive)
O=C(/C=C/c1ccc(Cl)cc1)c1ccc(Cl)s1 | 32.9 µM (inactive) | 10.5 µM (inactive) | 24.3 µM (inactive) | 40.5 µM (inactive) | 29.1 µM (inactive) | 12.2 µM (inactive) | 60.7 µM (inactive) | 67.8 µM (inactive) | 64.1 µM (inactive) | 72.1 µM (inactive) | 69 µM (inactive) | 55.8 µM (inactive) | 63 µM (inactive) | 23.2 µM (inactive) | 72.1 µM (inactive) | > 10 µM (inactive) | 98.6 µM (inactive) | 50.5 µM (inactive) | 32.6 µM (inactive) | > 100 µM (inactive)
CCCCCCCCP(=O)(O)OP(=O)(O)OCC1OC(n2ccc(N)nc2=O)C(O)C1O (stereo not given) | > 100 µM (inactive) | > 100 µM (inactive) | > 100 µM (inactive) | > 100 µM (inactive) | > 100 µM (inactive) | > 100 µM (inactive) | > 100 µM (inactive) | > 100 µM (inactive) | > 100 µM (inactive) | > 100 µM (inactive) | > 100 µM (inactive) | > 100 µM (inactive) | > 100 µM (inactive) | > 100 µM (inactive) | > 100 µM (inactive) | > 100 µM (inactive) | > 100 µM (inactive) | > 100 µM (inactive) | > 100 µM (inactive) | > 100 µM (inactive)
CC[C@](O)(CC(=O)O[C@H]1C(=O)O[C@@H]2C[C@H]3C(C)=CC(=O)[C@@H](O)[C@]3(C)[C@H]3[C@@]4(O)OC[C@]32[C@@H]1[C@@H](C)[C@H]4O)C(C)C | < 0.01 µM (active) | < 0.01 µM (active) | < 0.01 µM (active) | < 0.01 µM (active) | < 0.01 µM (active) | < 0.01 µM (active) | < 0.01 µM (active) | < 0.01 µM (active) | < 0.01 µM (active) | < 0.0188 µM (active) | < 0.01 µM (active) | < 0.01 µM (active) | < 0.01 µM (active) | < 0.01 µM (active) | < 0.01 µM (active) | < 0.01 µM (active) | < 0.01 µM (active) | < 0.01 µM (active) | < 0.01 µM (active) | < 0.01 µM (active)

From ChEMBL document CHEMBL1201862, “PubChem BioAssay data set” (2004)
